The record followed here is ChEMBL document CHEMBL5316268 (J Med Chem, 2023).

One data set has as its target T1, Cytochrome P450 1A2 (Homo sapiens, UniProt P05177).
T1 sequence (P05177 whole entry): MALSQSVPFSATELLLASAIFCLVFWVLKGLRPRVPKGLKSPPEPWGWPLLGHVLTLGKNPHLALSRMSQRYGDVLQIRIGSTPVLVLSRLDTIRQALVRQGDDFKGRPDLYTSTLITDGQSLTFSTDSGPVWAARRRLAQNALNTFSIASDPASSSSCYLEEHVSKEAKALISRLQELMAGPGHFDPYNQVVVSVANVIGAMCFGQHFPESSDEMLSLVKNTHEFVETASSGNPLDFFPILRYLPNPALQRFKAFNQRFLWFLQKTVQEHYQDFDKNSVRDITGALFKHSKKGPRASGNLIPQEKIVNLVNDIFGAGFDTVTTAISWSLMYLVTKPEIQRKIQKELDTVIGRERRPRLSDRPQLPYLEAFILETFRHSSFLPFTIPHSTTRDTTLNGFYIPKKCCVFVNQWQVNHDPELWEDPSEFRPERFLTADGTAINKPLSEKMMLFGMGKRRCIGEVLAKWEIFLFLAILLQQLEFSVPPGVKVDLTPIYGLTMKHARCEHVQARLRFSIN
The data set can be described thus: Inhibition of human CYP1A2 at 10 uM. In kind it is ADME.

The test system of data set [1] is EG7. The data set can be described thus: Antiproliferative activity against mouse EG7 cells at 100 uM incubated for 3 days by Cell Titer-Glo assay. In kind it is functional, cell-based. The settings on record: time 3.0 day. In general terms: ATP-based viability assays read luminescence as a measure of living cells.
Data set [2] relates to EG7. Put plainly: Antitumor activity against mouse EG7 cells implanted in C57BL/6 mouse assessed as reduction in tumor volume at 100 mg/kg, po bid administered for 21 days in presence of anti-PD-L1 antibody. In kind it is functional, organism-based. The settings on record: time 21.0 day.
Data set [3] in a line: Plasma protein binding in monkey at 10 uM assessed as bound fraction. In kind it is ADME, cell-free, Macaca mulatta. The settings on record: rhesus monkey, read-out: PPB (converted).
Data set [4] is described as follows: AUC (0 to 24 hrs) in CD rat at 500 mg/kg, po measured for 24 hrs by LC-MS/MS analysis. Format: ADME, organism-based. On the set-up: time 24 hrs, dose 500 mg/kg, route po. The conditions noted are these: in vivo.
Data set [5] in a line: Drug concentration in CD rat plasma at 50 to 500 mg/kg, po measured for 24 hrs by LC-MS/MS analysis. Format: ADME, organism-based. The conditions noted are these: dose 50-500 mg/kg.
Data set [6] can be described thus: AUC (0 to 24 hrs) in CD rat at 200 mg/kg, po measured for 24 hrs by LC-MS/MS analysis. In kind it is ADME, organism-based. On the set-up: dose 200 mg/kg, time 24 hrs, route po. The settings on record: in vivo.
Data set [7] is described as follows: AUC (0 to 24 hrs) in CD rat at 50 mg/kg, po measured for 24 hrs by LC-MS/MS analysis. In kind it is ADME, organism-based. On the set-up: time 24 hrs, dose 50 mg/kg, route po. The settings on record: in vivo.
Data set [8] can be described thus: Oral bioavailability in CD rat at 50 mg/kg measured for 24 hrs by LC-MS/MS analysis. Format: ADME, organism-based. The conditions noted are these: in vivo, po, 50 mg/kg, 24 h.
A short description of data set [9]: Cmax in CD rat at 200 mg/kg, po measured for 24 hrs by LC-MS/MS analysis. In kind it is ADME, organism-based. On the set-up: time 24 hrs, dose 200 mg/kg, route po. The settings on record: in vivo.
Data set [10] is described as follows: Cytotoxicity against human CD8-positive T cells at 100 uM incubated for 4 days by Cell Titer-Glo assay. In kind it is toxicity, cell-based. The settings on record: 96 h, time 4 day.
Data set [11] in a line: Cmax in CD rat at 50 mg/kg, po measured for 24 hrs by LC-MS/MS analysis. On the set-up: dose 50 mg/kg, time 24 hrs, route po. The conditions noted are these: in vivo. In kind it is ADME, organism-based.
In data set [12] the target is T2, 5'-nucleotidase (Homo sapiens, UniProt P21589). Put plainly: Competitive inhibition of cell surface anchored CD73 (unknown origin) expressed in human SK-MEL-28 cells assessed as inhibition constant incubated for 30 mins by malachite green assay. Format: cell-based.
T2 sequence (P21589 whole entry): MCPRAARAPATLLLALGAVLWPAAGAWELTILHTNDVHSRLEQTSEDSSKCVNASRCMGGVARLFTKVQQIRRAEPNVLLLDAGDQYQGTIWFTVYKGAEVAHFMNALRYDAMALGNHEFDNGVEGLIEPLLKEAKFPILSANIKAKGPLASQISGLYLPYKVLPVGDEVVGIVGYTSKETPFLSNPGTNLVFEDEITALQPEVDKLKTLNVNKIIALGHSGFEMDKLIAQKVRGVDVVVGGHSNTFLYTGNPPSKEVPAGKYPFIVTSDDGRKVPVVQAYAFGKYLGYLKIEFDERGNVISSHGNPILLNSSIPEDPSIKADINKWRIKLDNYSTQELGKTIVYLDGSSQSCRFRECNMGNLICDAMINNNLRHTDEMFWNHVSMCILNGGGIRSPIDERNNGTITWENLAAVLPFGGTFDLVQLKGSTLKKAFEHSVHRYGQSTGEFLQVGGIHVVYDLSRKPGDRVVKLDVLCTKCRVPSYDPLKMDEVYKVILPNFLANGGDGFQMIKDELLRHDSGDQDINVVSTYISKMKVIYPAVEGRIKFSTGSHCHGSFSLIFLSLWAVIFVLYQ
The next data set has as its target T3, Cytochrome P450 2B6 (Homo sapiens, UniProt P20813).
T3 sequence (P20813 whole entry): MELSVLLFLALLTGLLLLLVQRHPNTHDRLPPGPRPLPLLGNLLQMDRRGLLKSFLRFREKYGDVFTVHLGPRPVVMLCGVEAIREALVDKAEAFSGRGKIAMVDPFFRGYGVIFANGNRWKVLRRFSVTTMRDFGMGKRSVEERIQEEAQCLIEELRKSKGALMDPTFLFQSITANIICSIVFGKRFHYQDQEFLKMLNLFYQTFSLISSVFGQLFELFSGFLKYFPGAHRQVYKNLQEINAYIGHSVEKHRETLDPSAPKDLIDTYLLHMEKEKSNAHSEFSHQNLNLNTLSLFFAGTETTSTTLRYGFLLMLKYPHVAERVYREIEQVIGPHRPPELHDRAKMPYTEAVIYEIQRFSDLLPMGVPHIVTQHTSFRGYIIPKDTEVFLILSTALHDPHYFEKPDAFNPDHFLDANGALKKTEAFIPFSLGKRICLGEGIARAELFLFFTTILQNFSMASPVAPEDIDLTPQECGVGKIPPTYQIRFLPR
The data set can be described thus: Inhibition of human CYP2B6 at 10 uM. Format: ADME.

A short description of data set [13]: Tmax in CD rat at 50 mg/kg, po measured for 24 hrs by LC-MS/MS analysis. Format: ADME, organism-based. The settings on record: in vivo.
The target of a further data set is Cytochrome P450 2C19 (Homo sapiens, UniProt P33261). The data set can be described thus: Inhibition of human CYP2C19 at 10 uM. In kind it is ADME.
Chain of Cytochrome P450 2C19 (P33261 whole entry): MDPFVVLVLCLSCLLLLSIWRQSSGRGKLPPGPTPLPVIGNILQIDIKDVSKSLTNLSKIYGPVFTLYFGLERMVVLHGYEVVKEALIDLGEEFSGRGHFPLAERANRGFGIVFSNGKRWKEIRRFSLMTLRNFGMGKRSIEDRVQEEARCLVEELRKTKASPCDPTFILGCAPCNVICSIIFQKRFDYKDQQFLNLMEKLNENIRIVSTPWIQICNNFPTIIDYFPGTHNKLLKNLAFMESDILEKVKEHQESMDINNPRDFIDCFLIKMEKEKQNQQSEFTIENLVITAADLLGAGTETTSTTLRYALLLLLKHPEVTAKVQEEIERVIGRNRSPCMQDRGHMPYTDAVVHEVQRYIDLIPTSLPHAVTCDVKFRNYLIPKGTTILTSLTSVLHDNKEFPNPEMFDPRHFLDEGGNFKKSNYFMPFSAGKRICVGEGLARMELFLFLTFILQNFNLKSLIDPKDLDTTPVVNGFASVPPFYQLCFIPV
Data set [14] has as its system CD8-positive T cell. The data set can be described thus: Reversal of AMP-mediated suppression of human CD8-positive T cells function assessed as increase in IFN-gamma level at 0.01 to 1000 nM measured after 4 days by ELISA. Format: functional, cell-based. The settings on record: dose 0.01-1000 nM, time 4.0 day. On the technique in general: An ELISA detects its analyte on a solid surface through an enzyme-linked reagent.

For a further data set, the target named is T4, Cytochrome P450 2C8 (Homo sapiens, UniProt P10632).
T4 sequence (P10632 whole entry): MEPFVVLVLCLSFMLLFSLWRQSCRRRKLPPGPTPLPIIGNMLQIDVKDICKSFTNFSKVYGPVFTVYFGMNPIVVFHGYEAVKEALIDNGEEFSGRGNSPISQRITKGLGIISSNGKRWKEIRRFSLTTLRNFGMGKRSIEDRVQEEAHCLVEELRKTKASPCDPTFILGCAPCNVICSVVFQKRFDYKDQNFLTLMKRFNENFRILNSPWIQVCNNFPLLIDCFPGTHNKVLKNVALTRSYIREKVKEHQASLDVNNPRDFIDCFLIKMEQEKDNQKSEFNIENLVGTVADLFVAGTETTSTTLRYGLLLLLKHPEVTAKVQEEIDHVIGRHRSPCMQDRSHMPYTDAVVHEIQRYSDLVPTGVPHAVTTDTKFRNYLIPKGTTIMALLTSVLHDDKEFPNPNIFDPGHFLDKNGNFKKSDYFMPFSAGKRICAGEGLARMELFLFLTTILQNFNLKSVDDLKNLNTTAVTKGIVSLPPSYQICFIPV
Put plainly: Inhibition of human CYP2C8 at 10 uM. Format: ADME.

The target of data set [15] is T2, 5'-nucleotidase. Put plainly: Inhibition of CD73 in human plasma derived from esophageal cancer patient incubated for 15 mins in presence of 15N5-AMP by LC/MS analysis. Format: cell-free.
In another data set the test system is A-375. Put plainly: Antiproliferative activity against human A-375 cells at 100 uM incubated for 3 days by Cell Titer-Glo assay. In kind it is functional, cell-based. The settings on record: time 3.0 day.
In data set [16] the test system is CD8-positive T cell. The data set can be described thus: Reversal of AMP-mediated suppression of human CD8-positive T cell proliferation at 0.01 to 1000 nM measured after 4 days by flow cytometry. Format: functional, cell-based. The conditions noted are these: dose 0.01-1000 nM, time 4.0 day. In general terms: Flow cytometry measures light scatter and fluorescence of single cells or particles in a stream.

The structures appear in SMILES notation. Active and inactive are the calls of the source. The calls are words filed in the database; no cut-off is given here.

In the case of `C#C[C@@]1(O)[C@@H](COC(Cc2ccc(N3CCCNC3=O)cc2)(C(=O)O)C(=O)O)O[C@@H](n2cnc3c(N)nc(Cl)nc32)[C@@H]1O`, the “inhibition (INH)” value at Cytochrome P450 1A2, on Cytochrome P450 2B6, on Cytochrome P450 2C19 and against Cytochrome P450 2C8 was “Not Active” in each case. For the same compound, the result in the data set with EG7 [1] and in the data set on A-375 was inactive. Moreover, the result in the data set on EG7 [2], in the data set on CD8-positive T cell [14] and in the data set on CD8-positive T cell [16] was Active. The fraction unbound at 10 µM in data set [3] is 0.4. The results for the AUC(0-t) at 24 h in data set [4] and in data set [6] were 18500 ng·h/mL and 6090 ng·h/mL, respectively. This compound gave a concentration at 24 h in data set [5] greater than 3 nM. In data set [7], this compound showed an AUC of 580 ng·h/mL. This compound displayed a F in [8] of 2.8%. Besides, the Cmax was 1800 nM in data set [9] and 74 nM in data set [11]. Moreover, the Activity result in data set [10] is “Non-Toxic”. The Ki at 5'-nucleotidase [12] worked out at 0.11 nM. Moreover, the time to peak (Tmax) in data set [13] amounted to 48 min. Moreover, the IC50 on 5'-nucleotidase [15] was 0.1 nM.

What is called AUC(0-t) is exposure summed from dosing to a finite time, without extrapolation to infinity. The term AUC denotes the area under the concentration-time curve, a measure of exposure. A word on the Cmax: it is the peak of the concentration-time curve. Broadly, the Ki is the dissociation constant of the complex between target and ligand, obtained from inhibition or displacement. In general, Tmax refers to the time from dosing to the highest level. A word on the IC50: it is the concentration that inhibits the measured activity by half.
